From ChEMBL document CHEMBL3991601, “The target landscape of clinical kinase drugs” (Science, 2017) come the findings set out here.

Activity calls are given as the source filed them. Cut-off read from the data, not from the text of the source, for most assays here: actives have a measured Kd and inactives only a lower limit. Where only a bound is given, the exact number is not on record here.

As usually defined, the Kd is the free concentration of one partner at which half of the binding sites on the other are occupied at equilibrium, for simple one-to-one binding.

The target of experiment [1] is High affinity nerve growth factor receptor (Homo sapiens, UniProt P04629).
Sequence of High affinity nerve growth factor receptor (P04629 whole entry): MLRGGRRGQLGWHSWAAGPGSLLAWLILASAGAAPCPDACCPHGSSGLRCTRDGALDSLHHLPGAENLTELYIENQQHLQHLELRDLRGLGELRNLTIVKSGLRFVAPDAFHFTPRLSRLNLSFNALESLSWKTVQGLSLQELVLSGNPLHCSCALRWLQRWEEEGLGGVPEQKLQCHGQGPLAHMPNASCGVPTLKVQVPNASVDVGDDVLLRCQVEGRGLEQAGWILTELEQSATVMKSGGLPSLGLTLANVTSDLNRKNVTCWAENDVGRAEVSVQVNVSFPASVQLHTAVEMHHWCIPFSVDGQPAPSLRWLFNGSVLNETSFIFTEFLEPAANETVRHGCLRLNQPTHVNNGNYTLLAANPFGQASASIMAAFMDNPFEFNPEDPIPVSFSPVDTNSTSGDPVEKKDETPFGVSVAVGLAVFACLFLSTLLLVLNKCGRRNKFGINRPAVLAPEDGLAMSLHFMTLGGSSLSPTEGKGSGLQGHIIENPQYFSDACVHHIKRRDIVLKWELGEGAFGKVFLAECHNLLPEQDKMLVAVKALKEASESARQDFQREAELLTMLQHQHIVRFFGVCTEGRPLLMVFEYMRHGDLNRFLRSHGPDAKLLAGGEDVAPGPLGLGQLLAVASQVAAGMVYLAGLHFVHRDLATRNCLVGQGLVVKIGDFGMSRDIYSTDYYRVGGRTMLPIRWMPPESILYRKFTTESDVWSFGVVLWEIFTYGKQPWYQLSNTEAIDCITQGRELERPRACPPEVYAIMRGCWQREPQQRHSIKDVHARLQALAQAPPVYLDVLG
Experiment [2] addresses Mitogen-activated protein kinase 14 (Homo sapiens, UniProt Q16539).
The target of experiment [3] is Serine/threonine-protein kinase SIK3 (Homo sapiens, UniProt Q9Y2K2).
Sequence of Serine/threonine-protein kinase SIK3 (Q9Y2K2 whole entry): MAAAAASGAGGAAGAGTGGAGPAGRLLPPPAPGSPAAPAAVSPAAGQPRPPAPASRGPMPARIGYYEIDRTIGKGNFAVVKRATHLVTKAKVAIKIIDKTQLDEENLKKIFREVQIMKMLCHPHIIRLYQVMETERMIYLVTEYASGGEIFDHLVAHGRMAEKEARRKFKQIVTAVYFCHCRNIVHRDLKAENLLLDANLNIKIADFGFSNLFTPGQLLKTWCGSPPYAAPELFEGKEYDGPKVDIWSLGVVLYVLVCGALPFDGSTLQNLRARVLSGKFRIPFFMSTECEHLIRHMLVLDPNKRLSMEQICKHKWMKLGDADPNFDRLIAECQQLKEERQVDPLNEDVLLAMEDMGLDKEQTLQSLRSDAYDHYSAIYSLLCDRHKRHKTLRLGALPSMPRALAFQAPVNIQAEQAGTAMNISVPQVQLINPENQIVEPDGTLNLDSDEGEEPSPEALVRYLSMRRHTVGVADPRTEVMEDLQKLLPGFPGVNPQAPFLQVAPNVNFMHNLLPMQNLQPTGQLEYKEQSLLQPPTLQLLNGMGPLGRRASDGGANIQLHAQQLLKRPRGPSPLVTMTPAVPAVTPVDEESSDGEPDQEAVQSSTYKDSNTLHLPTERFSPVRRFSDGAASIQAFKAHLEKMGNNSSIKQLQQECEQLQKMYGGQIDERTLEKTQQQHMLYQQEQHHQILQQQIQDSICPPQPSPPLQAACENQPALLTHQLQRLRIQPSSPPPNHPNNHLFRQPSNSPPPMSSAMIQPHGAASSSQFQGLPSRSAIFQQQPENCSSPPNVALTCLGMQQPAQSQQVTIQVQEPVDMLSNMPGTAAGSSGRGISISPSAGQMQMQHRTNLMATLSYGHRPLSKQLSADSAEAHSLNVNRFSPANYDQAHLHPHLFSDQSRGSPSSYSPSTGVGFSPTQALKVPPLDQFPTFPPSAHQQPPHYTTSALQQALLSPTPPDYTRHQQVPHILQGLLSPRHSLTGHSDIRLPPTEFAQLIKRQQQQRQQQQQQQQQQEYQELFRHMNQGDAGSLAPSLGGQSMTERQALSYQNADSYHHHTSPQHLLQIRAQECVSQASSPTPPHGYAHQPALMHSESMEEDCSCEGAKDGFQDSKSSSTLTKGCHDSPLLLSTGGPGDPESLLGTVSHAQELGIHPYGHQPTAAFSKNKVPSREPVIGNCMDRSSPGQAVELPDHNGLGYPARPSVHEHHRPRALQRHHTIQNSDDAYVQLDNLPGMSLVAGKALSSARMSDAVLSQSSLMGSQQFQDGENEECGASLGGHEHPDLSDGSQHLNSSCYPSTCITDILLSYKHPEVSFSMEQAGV
In experiment [4] the target is T1, Interleukin-1 receptor-associated kinase 3 (Homo sapiens, UniProt Q9Y616).
T1 sequence (Q9Y616 whole entry): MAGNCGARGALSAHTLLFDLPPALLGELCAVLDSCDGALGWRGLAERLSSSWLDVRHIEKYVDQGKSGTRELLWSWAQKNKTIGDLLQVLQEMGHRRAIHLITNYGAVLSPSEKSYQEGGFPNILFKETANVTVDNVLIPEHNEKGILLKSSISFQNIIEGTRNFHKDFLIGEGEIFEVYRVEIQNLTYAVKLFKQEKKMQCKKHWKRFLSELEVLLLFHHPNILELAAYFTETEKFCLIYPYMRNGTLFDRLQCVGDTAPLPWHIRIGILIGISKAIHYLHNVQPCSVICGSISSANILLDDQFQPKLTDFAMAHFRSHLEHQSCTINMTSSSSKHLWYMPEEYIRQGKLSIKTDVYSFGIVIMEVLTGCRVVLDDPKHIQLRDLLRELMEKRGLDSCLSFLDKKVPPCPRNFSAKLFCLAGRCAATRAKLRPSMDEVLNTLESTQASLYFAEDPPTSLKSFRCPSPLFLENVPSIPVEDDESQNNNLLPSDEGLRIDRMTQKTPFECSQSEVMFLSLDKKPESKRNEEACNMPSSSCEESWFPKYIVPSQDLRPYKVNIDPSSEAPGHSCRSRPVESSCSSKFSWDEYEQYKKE

Experiment [5] addresses Mitogen-activated protein kinase 9 (Homo sapiens, UniProt P45984).
In the next experiment the target is T2, TGF-beta receptor type-1 (Homo sapiens, UniProt P36897).
T2 sequence (P36897 whole entry): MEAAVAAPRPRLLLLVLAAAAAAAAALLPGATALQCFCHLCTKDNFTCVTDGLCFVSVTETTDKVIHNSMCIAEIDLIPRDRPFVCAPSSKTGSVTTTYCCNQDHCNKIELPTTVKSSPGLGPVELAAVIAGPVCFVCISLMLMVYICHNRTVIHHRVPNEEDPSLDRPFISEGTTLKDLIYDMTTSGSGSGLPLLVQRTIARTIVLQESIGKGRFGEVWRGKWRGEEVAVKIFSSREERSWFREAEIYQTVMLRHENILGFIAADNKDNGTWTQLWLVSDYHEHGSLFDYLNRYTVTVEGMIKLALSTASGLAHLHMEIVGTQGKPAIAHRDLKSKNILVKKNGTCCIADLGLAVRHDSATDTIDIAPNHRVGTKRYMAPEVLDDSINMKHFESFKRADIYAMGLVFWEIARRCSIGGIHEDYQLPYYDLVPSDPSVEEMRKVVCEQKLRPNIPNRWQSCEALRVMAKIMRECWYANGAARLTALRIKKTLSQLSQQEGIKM

Experiment [6] deals with T3, Interleukin-1 receptor-associated kinase 4 (Homo sapiens, UniProt Q9NWZ3).
T3 sequence (Q9NWZ3 whole entry): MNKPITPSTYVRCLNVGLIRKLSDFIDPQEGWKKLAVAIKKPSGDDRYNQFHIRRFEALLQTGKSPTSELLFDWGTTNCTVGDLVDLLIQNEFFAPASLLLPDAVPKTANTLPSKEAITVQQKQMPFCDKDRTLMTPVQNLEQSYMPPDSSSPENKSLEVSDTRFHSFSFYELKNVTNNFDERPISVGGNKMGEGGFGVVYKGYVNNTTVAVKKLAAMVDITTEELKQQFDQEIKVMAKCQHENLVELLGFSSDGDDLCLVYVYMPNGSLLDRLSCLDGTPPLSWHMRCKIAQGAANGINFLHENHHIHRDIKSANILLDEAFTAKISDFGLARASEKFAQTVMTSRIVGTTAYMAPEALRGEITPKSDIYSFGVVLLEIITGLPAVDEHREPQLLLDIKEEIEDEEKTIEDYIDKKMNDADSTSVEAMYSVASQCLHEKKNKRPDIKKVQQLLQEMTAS

The target of experiment [7] is Mitogen-activated protein kinase 1 (Homo sapiens, UniProt P28482).
Sequence of Mitogen-activated protein kinase 1 (P28482 whole entry): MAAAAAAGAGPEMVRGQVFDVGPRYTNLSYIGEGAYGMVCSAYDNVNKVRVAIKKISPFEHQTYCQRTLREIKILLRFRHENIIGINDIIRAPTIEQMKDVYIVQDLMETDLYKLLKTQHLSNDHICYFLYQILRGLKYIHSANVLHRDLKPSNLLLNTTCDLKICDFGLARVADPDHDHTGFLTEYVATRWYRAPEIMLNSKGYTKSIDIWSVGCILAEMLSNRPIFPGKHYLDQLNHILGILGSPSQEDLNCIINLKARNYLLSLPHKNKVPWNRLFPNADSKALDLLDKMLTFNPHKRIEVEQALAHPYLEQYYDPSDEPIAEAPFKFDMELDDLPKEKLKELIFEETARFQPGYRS
For experiment [8], the target named is Tyrosine-protein kinase Fyn (Homo sapiens, UniProt P06241).
Sequence of Tyrosine-protein kinase Fyn (P06241 whole entry): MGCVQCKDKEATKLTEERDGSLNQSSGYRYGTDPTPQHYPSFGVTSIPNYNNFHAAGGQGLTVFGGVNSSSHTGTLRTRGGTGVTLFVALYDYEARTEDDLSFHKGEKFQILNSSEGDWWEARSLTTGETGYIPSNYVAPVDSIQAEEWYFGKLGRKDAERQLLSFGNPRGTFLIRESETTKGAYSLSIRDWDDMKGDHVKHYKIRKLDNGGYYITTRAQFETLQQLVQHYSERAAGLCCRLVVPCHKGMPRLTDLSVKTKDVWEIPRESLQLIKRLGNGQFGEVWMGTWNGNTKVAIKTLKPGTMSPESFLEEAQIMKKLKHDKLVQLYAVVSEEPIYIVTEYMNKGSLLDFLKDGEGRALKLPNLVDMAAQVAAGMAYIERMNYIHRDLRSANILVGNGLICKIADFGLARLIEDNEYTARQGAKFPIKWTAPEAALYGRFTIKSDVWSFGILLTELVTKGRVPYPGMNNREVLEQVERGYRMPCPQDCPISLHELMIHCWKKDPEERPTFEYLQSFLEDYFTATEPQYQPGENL
For experiment [9], the target named is Serine/threonine-protein kinase MRCK alpha (Homo sapiens, UniProt Q5VT25).
Another experiment has as its target GTP-binding protein 4 (Homo sapiens, UniProt Q9BZE4).
Note: in the data inactive means no Kd found up to 30 µM.

Sequence of Mitogen-activated protein kinase 14 (Q16539 whole entry): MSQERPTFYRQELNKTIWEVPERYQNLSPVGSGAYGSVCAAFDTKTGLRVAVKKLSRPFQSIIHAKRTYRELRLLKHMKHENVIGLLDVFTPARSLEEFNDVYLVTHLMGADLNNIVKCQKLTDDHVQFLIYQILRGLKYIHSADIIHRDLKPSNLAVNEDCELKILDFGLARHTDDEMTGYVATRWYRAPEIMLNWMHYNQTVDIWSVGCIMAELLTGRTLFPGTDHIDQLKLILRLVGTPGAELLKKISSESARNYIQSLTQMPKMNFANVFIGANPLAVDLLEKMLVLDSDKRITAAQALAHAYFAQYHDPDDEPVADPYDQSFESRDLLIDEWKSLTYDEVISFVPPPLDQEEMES
Sequence of Mitogen-activated protein kinase 9 (P45984 whole entry): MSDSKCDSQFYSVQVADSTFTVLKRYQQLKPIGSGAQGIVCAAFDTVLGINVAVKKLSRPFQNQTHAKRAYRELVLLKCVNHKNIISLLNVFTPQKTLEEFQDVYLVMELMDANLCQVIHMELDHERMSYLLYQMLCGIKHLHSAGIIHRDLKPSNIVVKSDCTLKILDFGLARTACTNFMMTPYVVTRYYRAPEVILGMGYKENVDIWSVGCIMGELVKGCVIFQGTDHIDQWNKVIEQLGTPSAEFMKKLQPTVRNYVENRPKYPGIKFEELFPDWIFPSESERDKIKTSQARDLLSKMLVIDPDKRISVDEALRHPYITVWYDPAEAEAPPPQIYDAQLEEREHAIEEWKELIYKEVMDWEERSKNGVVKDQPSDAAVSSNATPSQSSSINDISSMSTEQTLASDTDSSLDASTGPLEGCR

For `C[C@H]1CNCCCN1S(=O)(=O)c1cccc2cncc(F)c12`, the Kd (in experiment [1]; in experiment [2]; in [3]; in experiment [4]; in experiment [5]; at TGF-beta receptor type-1) was > 30 µM (inactive) in each case. Moreover, the Kd in experiment [6], in [7] and in experiment [8] was > 30 µM (inactive) throughout.
In the case of `CC(=O)c1cnc2ccc(-c3cc(Cl)c(O)c(Cl)c3)nc2c1N[C@H]1CC[C@H](CN(C)C)CC1`, the Kd was > 30 µM (inactive) in [1]; > 30 µM (inactive) in [2]; 0.356 µM (active) in experiment [3]; 0.012 µM (active) in experiment [4]; > 30 µM (inactive) in experiment [9]; 0.364 µM (active) in experiment [5]. For the same compound, the Kd at TGF-beta receptor type-1 is 0.149 µM (active); on GTP-binding protein 4 it was > 30 µM (inactive); in experiment [7] it was > 30 µM (inactive); in experiment [8], 0.125 µM (active).
Turning to `C=CC(=O)N1CCC[C@H](n2c(=O)n(-c3ccc(Oc4ccccc4)cc3)c3c(N)ncnc32)C1`, the Kd in experiment [1], in experiment [2], in experiment [3], in experiment [4], in [9] and in experiment [5] was > 30 µM (inactive) in each case. Moreover, the Kd was > 30 µM (inactive) on TGF-beta receptor type-1; > 30 µM (inactive) on GTP-binding protein 4; > 30 µM (inactive) in experiment [6]; > 30 µM (inactive) in experiment [7]; 0.005 µM in experiment [8].
Take `COCc1c(-c2ccc(NC(=O)Nc3cc(C(F)(F)F)ccc3F)c(F)c2)c2c(N)ncnn2c1CN1CCOCC1`: the Kd is > 30 µM (inactive) in experiment [1]; > 30 µM (inactive) in [2]; > 30 µM (inactive) in experiment [3]; > 30 µM (inactive) in experiment [4]; > 30 µM (inactive) in [9]; 1.51 µM (active) in experiment [5]. Further, the Kd (at TGF-beta receptor type-1; at GTP-binding protein 4; in experiment [6]; in experiment [7]; in experiment [8]) was > 30 µM (inactive) in each case.
As for `Nc1ncnc2c1c(-c1cccc(OCc3ccccc3)c1)cn2[C@H]1C[C@@H](CN2CCC2)C1` [AEW-541], the Kd in experiment [1], in [2], in experiment [3], in [4], in [9] and in experiment [5] was > 30 µM (inactive) in each case. Also, the Kd (at TGF-beta receptor type-1; in experiment [6]; in experiment [7]; in experiment [8]) was > 30 µM (inactive) throughout.
Take `Cc1cccc(-c2nn3c(c2-c2ccnc4ccc(C(N)=O)cc24)CCC3)n1` [GALUNISERTIB]: the Kd in experiment [1], in experiment [2], in experiment [3], in [4], in experiment [9] and in experiment [5] was > 30 µM (inactive) each time. For the same compound, the Kd (at GTP-binding protein 4; in experiment [6]; in experiment [7]; in [8]) was > 30 µM (inactive) throughout.
Take `CCn1cc(-c2ccnc3[nH]c(-c4cccc(CN(C)C)c4)cc23)c(-c2ccc(NC(=O)N(C)C)cc2)n1` [GSK-1070916]: the Kd is 5.95 µM (active) in [1]; 8.5 µM (active) in experiment [2]; > 30 µM (inactive) in experiment [4]; > 30 µM (inactive) in [9]; 1.94 µM (active) on TGF-beta receptor type-1; > 30 µM (inactive) at GTP-binding protein 4. Moreover, the Kd in [6], in [7] and in experiment [8] was > 30 µM (inactive) throughout.
Regarding `O=C(Nc1cc(C(F)(F)F)cc(C(F)(F)F)c1)c1cc(Cl)ccc1O` [IMD-0354], the Kd (in [1]; in experiment [2]; in experiment [3]; in experiment [4]; in [5]; at TGF-beta receptor type-1) was > 30 µM (inactive) in each case. The Kd (at GTP-binding protein 4; in experiment [8]) was > 30 µM (inactive) in each case.
For `CNC(=O)c1nn(C)c2c1C(C)(C)Cc1cnc(Nc3ccc(N4CCN(C)CC4)cc3)nc1-2` [MILCICLIB], the Kd in experiment [1] is 2.96 µM (active); in experiment [2], > 30 µM (inactive); in experiment [3] it was 0.266 µM (active); in experiment [4], 0.291 µM (active); in [9] it was > 30 µM (inactive); in [5], > 30 µM (inactive). Besides, the Kd at TGF-beta receptor type-1 was > 30 µM (inactive); in [6], 26.1 µM (active); in experiment [7], > 30 µM (inactive); in experiment [8] it was 1.44 µM (active).
Turning to `CCCCCCCCCCCCCCCCCCOP(=O)([O-])OC1CC[N+](C)(C)CC1` [PERIFOSINE], the Kd (in [1]; in experiment [3]; in experiment [4]; in [9]; in experiment [5]; at TGF-beta receptor type-1) was > 30 µM (inactive) each time. Moreover, the Kd (on GTP-binding protein 4; in experiment [6]; in experiment [7]; in experiment [8]) was > 30 µM (inactive) throughout.
As for `CCS(=O)(=O)c1cccc(-c2cc(C(=O)NC3CCN(C)CC3)c(C)c3[nH]c4ncc(C)cc4c23)c1` [TAK-901], the Kd in experiment [1] was 0.843 µM (active); in experiment [2] it was > 30 µM (inactive); in experiment [3], > 30 µM (inactive); in experiment [4], 0.027 µM (active); in experiment [9], > 30 µM (inactive); in [5], > 30 µM (inactive). The Kd on TGF-beta receptor type-1 was 0.197 µM (active); in experiment [6] it was 2.13 µM (active); in experiment [7], > 30 µM (inactive); in [8], 0.095 µM (active).
For the compound `CC(C)c1cc(CNc2nc(Nc3cc(C4CC4)[nH]n3)cc(N3CCN(C)CC3)n2)on1` [XL-228], the Kd in experiment [1] was 0.006 µM (active); in experiment [2], > 30 µM (inactive); in experiment [3], > 30 µM (inactive); in [4], 0.08 µM (active); in experiment [9], > 30 µM (inactive); in experiment [5], > 30 µM (inactive). Further, the Kd at GTP-binding protein 4 is > 30 µM (inactive); in experiment [6], > 30 µM (inactive); in experiment [7], > 30 µM (inactive); in experiment [8], 0.023 µM (active).
`C[C@@H](N)c1ccc(C(=O)Nc2ccnc3[nH]ccc23)cc1` [Y-39983]: the Kd in [1] is > 30 µM (inactive); in [3], 0.071 µM (active); in experiment [4], > 30 µM (inactive); in experiment [9], > 30 µM (inactive); in experiment [5] it was > 30 µM (inactive); on TGF-beta receptor type-1, > 30 µM (inactive). Further, the Kd (on GTP-binding protein 4; in experiment [6]; in [7]; in experiment [8]) was > 30 µM (inactive) in each case.
